Results published in paper PMC8707145, “Synthesis, Molecular Docking and Antiplasmodial Activities of New Tetrahydro-β-Carbolines” (International Journal of Molecular Sciences, 2021).
Read-outs that look alike come from different tables or passages of the source.

Key:
P. falciparum = conditions: read-out: 50% inhibitory concentration (IC50); range of values; no diminished potency against drug-resistant strains; ref [8]; cited from earlier work
[1] = tested on: P. falciparum D10 (CQ-sensitive) strain; test: P. falciparum drug susceptibility assay (pLDH), D10 strain; format: cell-based; conditions: Plasmodium falciparum, read-out: P. falciparum IC50 D10
Experimental: Plasmodium falciparum cultures were established according to the method of Trager and Jensen, with slight modifications. […] Drugs were introduced into 96-well flat-bottomed microplates and serial dilutions made. […] Parasite growth was determined spectrophotometrically (OD650) by measuring the activity of parasite lactate dehydrogenase (pLDH), according to a modified version of the method of Makler, in both control and drug-treated cultures.

[2] = Cytotoxicity assay on HMEC-1 cell line (MTT); format: cell-based, human; conditions: human, HMEC-1 cells; HMEC-1, MTT, 72 h
Experimental: (§1) The long-term human microvascular endothelial cell line (HMEC-1) was maintained in MCDB 131 medium supplemented with 10% fetal calf serum, 10 ng/mL of epidermal growth factor, 1 µg/mL of hydrocortisone, 2 mM glutamine and 20 mM Hepes buffer. For the cytotoxicity assays, cells were treated with serial dilutions of test compounds and cell proliferation evaluated using the MTT assay. Plates were incubated for 72 h at 37 °C in 5% CO2, then 20 µL of a 5 mg/mL solution of 3-(4,5-dimethylthiazol-2-yl)-2,5-diphenyltetrazolium bromide (MTT) in PBS was added for an additional 3 h at 37 °C. The plates were then centrifuged, the supernatants discarded, and the dark blue formazan crystals dissolved using 100 µL of lysing buffer consisting of 20% (w/v) of a solution of SDS, 40% of N,N dimethylformamide in H2O, at pH 4.7 adjusted with 80% acetic acid. The plates were then read on a microplate reader (Synergy 4 Bio-Tek Instruments, Thermo Fisher Scientific, Waltham, MA, USA) at a test wavelength of 550 nm and a reference wavelength of 650 nm. All the tests were performed in triplicate at least three times.

[3] = tested on: P. falciparum W2 (CQ-resistant) strain; test: P. falciparum drug susceptibility assay (pLDH), W2 strain; format: cell-based, Plasmodium falciparum; conditions: for IC50: Plasmodium falciparum, read-out: P. falciparum IC50 W2; for RI (resistance index): RI = IC50 CQ resistant P. falciparum strain/IC50 CQ sensitive P. falciparum strain
Experimental: Plasmodium falciparum cultures were established according to the method of Trager and Jensen, with slight modifications. The CQ-susceptible strain, D10, and the CQ-resistant strain, W2, were maintained in human type A-positive red blood cells at 5% hematocrit in RPMI 1640 medium with the addition of 1% AlbuMax, 0.01% hypoxanthine, 20 mM Hepes, and 2 mM glutamine. Cultures were maintained at 37 °C in a gas mixture consisting of 1% O2, 5% CO2, and 94% N2. Compounds were dissolved in DMSO and diluted with medium to achieve the required concentrations (final DMSO concentration <1%, which is non-toxic to the parasite). Drugs were introduced into 96-well flat-bottomed microplates and serial dilutions made. Asynchronous cultures with parasitaemia of 1–1.5% and 1% final hematocrit were aliquoted into the plates and incubated for 72 h at 37 °C. Parasite growth was determined spectrophotometrically (OD650) by measuring the activity of parasite lactate dehydrogenase (pLDH), according to a modified version of the method of Makler, in both control and drug-treated cultures.

P. falciparum Dd2 strain = tested on: P. falciparum Dd2 strain; design: method as in PMID 29072835; conditions: ref [10], read-out: IC50 growth of P. falciparum Dd2 strain; cited from earlier work
[4] = tested on: human microvascular endothelial (HMEC-1) cell line; test: Cytotoxicity assay on HMEC-1 cell line (MTT); format: cell-based; conditions: for SI D10: SI = IC50 HMEC-1/IC50 P. falciparum D10 strain; for SI W2: SI = IC50 HMEC-1/IC50 P. falciparum W2 strain
Experimental: as §1

[5] = tested on: human microvascular endothelial (HMEC-1) cell line; conditions: read-out: IC50 on HMEC-1 cell line, ref [21]; cited from earlier work
[6] = Determination of hemolytic activity; format: cell-based; conditions: human erythrocytes, released hemoglobin, read-out: level of hemolysis
Experimental: We also sought to investigate the hemolytic potential of the synthetized compounds. […] We incubated these compounds at a concentration of 10 µM, with human erythrocytes, and then, by measuring the released hemoglobin, we assessed their potential harmful effects on these cells. The measured level of hemolysis was less than 5% for all agents, which proves that the compounds are not hemolytic. It is worth emphasizing at this point that this type of test is extremely important to confirm that the observed inhibitory activity against Plasmodium is a result of a compound acting directly upon it and not as a result of red blood cell lysis.
The study protocol was approved by the Bioethics Commission at the Lower Silesian Medical Chamber (1/PNHAB/2018, approval date 14 February 2018), and experiments were performed as previously described. Compounds dissolved in DMSO were added in a volume corresponding to a final concentration of 10 µM in the sample. Negative (erythrocytes in PBS buffer), positive (erythrocytes in distilled water), and DMSO controls were also prepared.

P. falciparum 3D7 strain = tested on: P. falciparum 3D7 strain; design: method as in PMID 30411030; conditions: ref [11], cited from earlier work
[7] = tested on: P. falciparum RKL-9 strain; design: method as in PMID 30411030; conditions: ref [11], cited from earlier work
[8] = tested on: normal dermal fibroblasts; design: method as in PMID 30411030; conditions: ref [11]; cited from earlier work
[9] = D10 (CQ-sensitive) strain, 72 h, pLDH
[10] = W2 (CQ-resistant) strain, 72 h, pLDH

Row | Compound | IC50 [1, 9] [µM] | IC50 at 72 h [2] [µM] | IC50 [3, 10] [µM] | RI (resistance index) [3] | SI D10 [4] | SI W2 [4] | further results
1 | C[C@H]1Cc2c([nH]c3cc(Cl)c(F)cc23)[C@@]2(N1)C(=O)Nc1ccc(Cl)cc12 [Cipargamin] | – | – | – | – | – | – | IC50 (P. falciparum): 0.0005 to 0.0014 µM
2 | O=C(NC1CCCCC1)[C@@H]1Cc2c([nH]c3ccccc23)[C@@H](c2ccc(Cl)cc2)N1 (racemic) [1RS,3SR-13, (1RS,3SR)-1-(4-chlorophenyl)-N-cyclohexyl-2,3,4,9-tetrahydro-1H-pyrido[3,4-b]indole-3-carboxamide] | 12.5 ± 0.71 | > 123 | 9.13 ± 0.83 | 0.73 | – | – | –
3 | O=C(O)[C@@H]1Cc2c([nH]c3ccccc23)[C@@H](c2ccc(Cl)cc2Cl)N1 [MMV008138] | – | – | – | – | – | – | IC50 (P. falciparum Dd2 strain): 0.25 µM
4 | O=C(NCC1COCCO1)C1Cc2c([nH]c3ccccc23)C(c2ccc(Cl)cc2)N1 (stereo not shown) [Compound 11, N-((1,4-dioxan-2-yl)methyl)-1-(4-chlorophenyl)-2,3,4,9-tetrahydro-1H-pyrido[3,4-b]indole-3-carboxamide] | 35.4 ± 4.86 | – | 29.1 ± 4.05 | 0.82 | – | – | –
5 | CC1NC(C(=O)NCC2CCCCC2)Cc2c1[nH]c1ccccc21 (stereo not shown) [Compound 5, N-(cyclohexylmethyl)-1-methyl-2,3,4,9-tetrahydro-1H-pyrido[3,4-b]indole-3-carboxamide] | 33.5 ± 7.58 | – | 16.2 ± 4.11 | 0.48 | – | – | –
6 | O=C(NC1CCCCC1)[C@@H]1Cc2c([nH]c3ccccc23)[C@H](c2ccc(Cl)cc2)N1 (racemic) [1RS,3RS-13, (1SR,3SR)-1-(4-chlorophenyl)-N-cyclohexyl-2,3,4,9-tetrahydro-1H-pyrido[3,4-b]indole-3-carboxamide] | 16.1 ± 3.36 | 53.8 ± 21.9 | 13.5 ± 1.99 | 0.84 | 3.35 | 4.00 | –
7 | CCN(CC)CCCC(C)Nc1ccnc2cc(Cl)ccc12 (stereo not shown) [CQ, chloroquine, reference compound] | – | – | – | – | – | – | IC50 ([1]; D10, 72 h): 0.017 ± 0.006 µM; IC50 [5]: > 38 µM; IC50 ([3]; W2, 72 h): 0.27 ± 0.07 µM
8 | O=C(NCCCN1CCOCC1)C1Cc2c([nH]c3ccccc23)C(c2ccc(Cl)cc2)N1 (stereo not shown) [Compound 12, 1-(4-chlorophenyl)-N-(3-morpholinopropyl)-2,3,4,9-tetrahydro-1H-pyrido[3,4-b]indole-3-carboxamide] | 11.5 ± 0.34 | 102 ± 14.8 | 6.15 ± 0.46 | 0.54 | 8.91 | 16.60 | hemolysis at 10 µM [6]: < 5%
9 | COC(=O)[C@@H]1Cc2c([nH]c3ccccc23)[C@@H](c2ccc3c(c2)OCO3)N1 [Compound 9a] | – | – | – | – | – | – | IC50 (P. falciparum 3D7 strain; 3D7 strain): < 2.86 µM; selectivity index 3D7 (P. falciparum 3D7 strain; against 3D7 strain): > 10; IC50 ([7]; RKL-9 strain): < 2.86 µM; selectivity index RKL-9 ([7]; against RKL-9 strain): > 10; toxicity to normal dermal fibroblasts [8]: nontoxic
10 | O=C(NCC1CCCCC1)C1Cc2c([nH]c3ccccc23)C(c2ccc(Cl)cc2)N1 (stereo not shown) [Compound 14, 1-(4-chlorophenyl)-N-(cyclohexylmethyl)-2,3,4,9-tetrahydro-1H-pyrido[3,4-b]indole-3-carboxamide] | > 47.4 | – | > 47.4 | – | – | – | –
11 | CC1NC(C(=O)N2CCCCC2)Cc2c1[nH]c1ccccc21 (stereo not shown) [Compound 3, (1-methyl-2,3,4,9-tetrahydro-1H-pyrido[3,4-b]indol-3-yl)(piperidin-1-yl)methanone] | 13.2 ± 2.85 | 157 ± 42.5 | 9.6 ± 0.78 | 0.73 | 11.93 | 16.37 | hemolysis at 10 µM [6]: < 5%
12 | CC1NC(C(=O)NC2CCCCC2)Cc2c1[nH]c1ccccc21 (stereo not shown) [Compound 4, N-cyclohexyl-1-methyl-2,3,4,9-tetrahydro-1H-pyrido[3,4-b]indole-3-carboxamide] | 21.4 ± 4.7 | – | 20.1 ± 2.79 | 0.94 | – | – | –
13 | CCC1NC(C(=O)NC23CC4CC(CC(C4)C2)C3)Cc2c1[nH]c1ccccc21 (stereo not shown) [Compound 6, N-(Adamantan-1-yl)-1-ethyl-2,3,4,9-tetrahydro-1H-pyrido[3,4-b]indole-3-carboxamide] | 9.73 ± 0.96 | 21.1 ± 8.82 | 11.4 ± 0.82 | 1.17 | 2.17 | 1.86 | –
14 | CCCCCCCCC1NC(C(=O)NCCC(C)(C)C)Cc2c1[nH]c1ccccc21 (stereo not shown) [Compound 7, N-(3,3-dimethylbutyl)-1-octyl-2,3,4,9-tetrahydro-1H-pyrido[3,4-b]-indole-3-carboxamide] | 4.45 ± 0.83 | 72 ± 22.4 | 4 ± 0.53 | 0.90 | 16.18 | 18.00 | hemolysis at 10 µM [6]: < 5%
15 | CC(C)(C)CCNC(=O)C1Cc2c([nH]c3ccccc23)C(c2ccc(Cl)cc2)N1 (stereo not shown) [Compound 8, 1-(4-chlorophenyl)-N-(3,3-dimethylbutyl)-2,3,4,9-tetrahydro-1H-pyrido[3,4-b]indole-3-carboxamide] | 10.5 ± 1.53 | 17.9 ± 9.46 | 7.8 ± 1.54 | 0.74 | 1.71 | 2.30 | –
16 | CC(C)(C)CC(C)(C)NC(=O)C1Cc2c([nH]c3ccccc23)C(c2ccc(Cl)cc2)N1 (stereo not shown) [Compound 9, 1-(4-chlorophenyl)-N-(2,4,4-trimethylpentan-2-yl)-2,3,4,9-tetrahydro-1H-pyrido[3,4-b]indole-3-carboxamide] | 8.41 ± 1.2 | 18.9 ± 10.2 | 6.41 ± 1.05 | 0.76 | 2.25 | 2.95 | –
17 | O=C(NCC1CCCO1)C1Cc2c([nH]c3ccccc23)C(c2ccc(Cl)cc2)N1 (stereo not shown) [Compound 10, 1-(4-chlorophenyl)-N-((tetrahydrofuran-2-yl)methyl)-2,3,4,9-tetrahydro-1H-pyrido[3,4-b]indole-3-carboxamide] | 29.4 ± 7.88 | – | 20.5 ± 2.2 | 0.70 | – | – | –
18 | O=C(NC1CCCCCCC1)C1Cc2c([nH]c3ccccc23)CN1 (stereo not shown) [Compound 2, N-cyclooctyl-2,3,4,9-tetrahydro-1H-pyrido[3,4-b]indole-3-carboxamide] | 21.9 ± 5.82 | – | 10.1 ± 2.14 | 0.46 | – | – | –
